# Data taken from ChEMBL document CHEMBL1137525, “Additional level of information about complex interaction between non-nucleoside inhibitor and HIV-1 reverse transcriptase using biosensor-based thermodynamic analysis” (Bioorg Med Chem, 2007).
# Experiments:
# [1] = molecular target: T1, Human immunodeficiency virus type 1 reverse transcriptase (Human immunodeficiency virus 1, UniProt Q72547, K103N); test: Binding affinity to HIV1 reverse transcriptase K103N mutant at 15 degC
# [2] = molecular target: T2, Human immunodeficiency virus type 1 reverse transcriptase (Human immunodeficiency virus 1, UniProt Q72547, Y181C); test: Binding affinity to HIV1 reverse transcriptase Y181C mutant at 25 degC
# [3] = molecular target: T2, Human immunodeficiency virus type 1 reverse transcriptase; test: Binding affinity to HIV1 reverse transcriptase Y181C mutant at 5 degC
# [4] = molecular target: T2, Human immunodeficiency virus type 1 reverse transcriptase; test: Binding affinity to HIV1 reverse transcriptase Y181C mutant at 35 degC
# [5] = molecular target: T1, Human immunodeficiency virus type 1 reverse transcriptase; test: Binding affinity to HIV1 reverse transcriptase K103N mutant at 25 degC
# [6] = molecular target: T2, Human immunodeficiency virus type 1 reverse transcriptase; test: Binding affinity to HIV1 reverse transcriptase Y181C mutant at 15 degC
# [7] = molecular target: T1, Human immunodeficiency virus type 1 reverse transcriptase; test: Binding affinity to HIV1 reverse transcriptase K103N mutant at 5 degC
# [8] = molecular target: T1, Human immunodeficiency virus type 1 reverse transcriptase; test: Binding affinity to HIV1 reverse transcriptase K103N mutant at 35 degC
structure (smiles),measurement,setting,value
CCC(=O)c1ccc(F)c([C@@H]2C[C@@H]2NC(=O)Nc2ccc(C#N)cn2)c1O,Kd,[1],0.997 nM
same,Kd,[2],1.5 nM
same,Kd,[3],0.627 nM
same,Kd,[4],2.89 nM
same,Kd,[5],4.91 nM
same,Kd,[6],0.79 nM
same,Kd,[7],0.596 nM
same,Kd,[8],3.49 nM
